Results taken from publication PMC6017805 (2018).

What was measured:
Assay in all cases: UV-Vis titration (D/Δεapp vs D plot)
Settings in all cases: phosphate buffer 50 mM pH 7.4 (Figure 2; methods say 100 mM), 25 °C, 4a 50 μM
[1] = tested on: [Poly(dG)-Poly(dC)] (DNA, polymer) G/C
[2] = tested on: [Poly(dA)-Poly(dT)] (DNA, polymer) A/T
[3] = tested on: GC Box [Poly(dGGGCGG)-Poly(dCCCGCC)] (DNA, polymer) GGGCGG/CCGCCC
[4] = tested on: AT Box [Poly(dTATAAT)-Poly(dATATTA)] (DNA, polymer) TATAAT/ATTATA

`N[C@@H](CCCCN1C(=O)c2cccc3cccc(c23)C1=O)C(=O)NCCNC(=O)[C@@H](N)CCCCN1C(=O)c2cccc3cccc(c23)C1=O` showed a Kb [1] of 1150 M⁻¹, a Kb [2] of 9080 M⁻¹ and a Kb [3] of 1910 M⁻¹. It also gave a Kb [4] of 9710 M⁻¹.
